Source: PubChem BioAssay AID1259408 (Genetic Toxicology Data Bank (GENE-TOX), 2018)
The source made the active and inactive calls. How the calls were made is not given here.

Test system: GENE-TOX genotoxicity assays, various organisms and cells
Test: GENE-TOX mutagenicity studies
Details: for call: Assay Type: In vivo carcinogenicity studies
[1] = Species/Cell Type: Nonhuman, Assay Type: Chromosome aberrations in vitro, Assay Code: CY&+D, Dose Response: With dose response, Evaluation Type: Evaluation A (Pre-1980)
[2] = Species/Cell Type: Nonhuman, Assay Type: Sister-chromatid exchange (SCE) in vitro, Assay Code: SC2+D, Dose Response: With dose response, Evaluation Type: Evaluation A (Pre-1980)
[3] = Species/Cell Type: Drosophila melanogaster, Assay Type: Sex-linked recessive lethal gene mutation, Assay Code: SRL+, Evaluation Type: Evaluation A (Pre-1980)
[4] = Species/Cell Type: Salmonella typhimurium (one or more of the five standard strains: TA98, TA100, TA1535, TA1537, and TA1538), Assay Type: Histidine reverse gene mutation, Ames assay, Assay Code: SAL-, Evaluation Type: Evaluation A (Pre-1980)
[5] = Species/Cell Type: Nonhuman, Assay Code: CCG+, Evaluation Type: Evaluation A (Pre-1980)
[6] = Species/Cell Type: Salmonella typhimurium, Assay Type: Forward and reverse gene mutation, host-mediated assay, Assay Code: HMA+, Evaluation Type: Evaluation A (Pre-1980)
[7] = Species/Cell Type: Rodents, Sex: Male, Assay Type: Dominant lethal test, Assay Code: DLT-, Evaluation Type: Evaluation A (Pre-1980)
[8] = Species/Cell Type: Saccharomyces cerevisiae, Assay Type: Mitotic recombination or gene conversion, Assay Code: YEC+, Evaluation Type: Evaluation A (Pre-1980)
[9] = Species/Cell Type: Chinese hamster lung (V79) cells, Assay Type: Forward gene mutation at the HPRT or ouabain locus, Assay Code: V79+, Evaluation Type: Evaluation A (Pre-1980)

Q: What does the source list for `N=c1ccn(O)c2ccccc12`?
A: mutagenic call (Species/Cell Type: Escherichia coli polA (W3119 vs P3478), Assay Type: Rec-assay, DNA effects (bacterial DNA repair), Assay Code: RE1-, Evaluation Type: Evaluation A (Pre-1980)): inactive; negative; mutagenic call [1]: active; positive; call (Species/Cell Type: Nonhuman, Assay Code: CCGT, Evaluation Type: Evaluation A (Pre-1980)): no conclusion; mutagenic call [2]: active; positive

Q: For `O=c1ccc(=O)[nH][nH]1`, which mutagenic call (Species/Cell Type: Allium cepa, Assay Type: Chromosome aberrations, Assay Code: ALC+, Evaluation Type: Evaluation A (Pre-1980)) is on record?
A: active; positive

Q: And the mutagenic call (Species/Cell Type: Arabidopsis species, Assay Type: Gene mutation, Assay Code: ARM-, Evaluation Type: Evaluation A (Pre-1980))?
A: inactive; negative

Q: And the mutagenic call [3]?
A: active; positive

Q: What about the mutagenic call (Species/Cell Type: Hordeum vulgare (barley), Assay Type: Chromosome aberrations, Assay Code: HOC+, Evaluation Type: Evaluation A (Pre-1980)) of the same compound?
A: active; positive

Q: And the mutagenic call (Species/Cell Type: Human lymphocytes, Assay Type: Sister-chromatid exchange (SCE) in vitro, Assay Code: SCL+D, Dose Response: With dose response, Evaluation Type: Evaluation B (Post-1980))?
A: active; positive

Q: And the mutagenic call (Species/Cell Type: Human, Assay Type: Sister-chromatid exchange (SCE) in vitro, Assay Code: SC1+D, Dose Response: With dose response, Evaluation Type: Evaluation B (Post-1980))?
A: active; positive

Q: What about the mutagenic call (Species/Cell Type: Mammalian polychromatic erythrocytes, Assay Type: Micronucleus test, chromosome aberrations, Assay Code: MNTT, Evaluation Type: Evaluation A (Pre-1980)) of the same compound?
A: no conclusion

Q: What about the mutagenic call (Species/Cell Type: Neurospora crassa, Assay Type: Aneuploidy, chromosome aberrations, Assay Code: NEN-, Evaluation Type: Evaluation A (Pre-1980)) of the same compound?
A: inactive; negative

Q: What about the call (Species/Cell Type: Nonhuman, Assay Code: CCG-L, Evaluation Type: Evaluation A (Pre-1980)) of the same compound?
A: inactive; negative

Q: What about the mutagenic call (Species/Cell Type: Nonhuman, Assay Type: Sister-chromatid exchange (SCE) in vitro, Assay Code: SC2+D, Dose Response: With dose response, Evaluation Type: Evaluation B (Post-1980)) of the same compound?
A: active; positive

Q: And the mutagenic call (Species/Cell Type: Nonhuman, Assay Type: Sister-chromatid exchange (SCE) in vitro, Assay Code: SC2-, Evaluation Type: Evaluation A (Pre-1980))?
A: inactive; negative

Q: And the mutagenic call [4]?
A: inactive; negative

Q: What about the mutagenic call (Species/Cell Type: Vicia faba, Assay Type: Chromosome aberrations, Assay Code: VIC+D, Dose Response: With dose response, Evaluation Type: Evaluation A (Pre-1980)) of the same compound?
A: active; positive

Q: How did the mutagenic call (Species/Cell Type: Escherichia coli WP2 UVRA, Assay Type: Tryptophan reverse gene mutation, Assay Code: WPU+, Evaluation Type: Evaluation A (Pre-1980)) turn out when `CCN(CC)CCCNC(=O)N/N=C/c1ccc([N+](=O)[O-])o1` was run?
A: active; positive

Q: With `COc1ccc2nc3cc(Cl)ccc3c(NCCNCCCl)c2c1` as the compound, how does the mutagenic call (Species/Cell Type: Chinese hamster ovary (CHO) cells, Assay Type: Forward gene mutation at the HPRT locus, Assay Code: CHO+, Evaluation Type: Evaluation B (Post-1980)) read?
A: active; positive

Q: `CC[C@@H](CO)NCCN[C@@H](CC)CO` was tested. Which mutagenic call (Species/Cell Type: Mammalian polychromatic erythrocytes, Assay Type: Micronucleus test, chromosome aberrations, Assay Code: MNT+U, Dose Response: Unconfirmed positive response, Evaluation Type: Evaluation B (Post-1980)) did it give?
A: active; positive

Q: Which mutagenic call (Species/Cell Type: Escherichia coli polA (W3119 vs P3478), Assay Type: Rec-assay, DNA effects (bacterial DNA repair), Assay Code: RE1+, Evaluation Type: Evaluation A (Pre-1980)) does the source give for `O=CC1CO1` (stereo not drawn) here?
A: active; positive

Q: And the mutagenic call (Species/Cell Type: Human diploid fibroblasts, Assay Type: Unscheduled DNA synthesis (UDS) in vitro, DNA effects, Assay Code: UDH+, Evaluation Type: Evaluation A (Pre-1980))?
A: active; positive

Q: What about the mutagenic call (Species/Cell Type: Mouse (BALB/c-3T3) cells, Assay Type: Cell transformation, Assay Code: CTB+D, Dose Response: With dose response, Evaluation Type: Evaluation A (Pre-1980)) of the same compound?
A: active; positive

Q: And the call [5]?
A: active; positive

Q: And the mutagenic call (Species/Cell Type: Saccharomyces cerevisiae, Assay Type: Mitotic recombination or gene conversion, Assay Code: YEH+, Evaluation Type: Evaluation A (Pre-1980))?
A: active; positive

Q: And the mutagenic call (Species/Cell Type: Salmonella typhimurium (one or more of the five standard strains: TA98, TA100, TA1535, TA1537, and TA1538), Assay Type: Histidine reverse gene mutation, Ames assay, Assay Code: SAL+, Evaluation Type: Evaluation A (Pre-1980))?
A: active; positive

Q: What about the mutagenic call [6] of the same compound?
A: active; positive

Q: And the mutagenic call (Species/Cell Type: Syrian hamster embryo (SHE) cells, Assay Type: Cell transformation, clonal assay, Assay Code: CTC+, Evaluation Type: Evaluation A (Pre-1980))?
A: active; positive

Q: What does the source list for `CCCCN(N=O)C(N)=O`?
A: mutagenic call (Species/Cell Type: Arabidopsis species, Assay Type: Gene mutation, Assay Code: ARM+D, Dose Response: With dose response, Evaluation Type: Evaluation A (Pre-1980)): active; positive; mutagenic call (Species/Cell Type: Chinese hamster ovary (CHO) cells, Assay Type: Forward gene mutation at the HPRT locus, Assay Code: CHO+D, Dose Response: With dose response, Evaluation Type: Evaluation A (Pre-1980)): active; positive; mutagenic call (Species/Cell Type: Human diploid fibroblasts, Assay Type: Unscheduled DNA synthesis (UDS) in vitro, DNA effects, Assay Code: UDH-, Evaluation Type: Evaluation A (Pre-1980)): inactive; negative; mutagenic call [1]: active; positive; call [5]: active; positive; mutagenic call [2]: active; positive; mutagenic call [7]: inactive; negative; mutagenic call [8]: active; positive; mutagenic call (Species/Cell Type: Salmonella typhimurium, Escherichia coli, Serratia marcesens, Assay Type: Forward and reverse gene mutation, host-mediated assay, Assay Code: HMN+, Evaluation Type: Evaluation A (Pre-1980)): active; positive

Q: How did the mutagenic call (Species/Cell Type: Mammalian polychromatic erythrocytes, Assay Type: Micronucleus test, chromosome aberrations, Assay Code: MNT-, Evaluation Type: Evaluation B (Post-1980)) turn out when `FC(F)(Cl)Br` was run?
A: inactive; negative

Q: With `C1CNCCN1` as the compound, how does the mutagenic call [6] read?
A: active; positive

Q: With `COc1ccc(N=NN(C)C)cc1` as the compound, how does the mutagenic call [3] read?
A: active; positive

Q: What about the mutagenic call [8] of the same compound?
A: active; positive

Q: Which results are given for `Cc1c2ccccc2cc2c3c(ccc12)[C@@H](O)[C@H](O)C=C3`?
A: mutagenic call [9]: active; positive; call (Species/Cell Type: Nonhuman, Assay Code: CCG+L, Evaluation Type: Evaluation A (Pre-1980)): active; positive

Q: With `CC1(C)O[C@@H]2C[C@H]3[C@@H]4C[C@H](F)C5=CC(=O)C=C[C@]5(C)[C@@]4(F)[C@@H](O)C[C@]3(C)[C@]2(C(=O)CO)O1` as the compound, how does the mutagenic call (Species/Cell Type: Syrian hamster embryo (SA7/SHE) cells, Assay Type: Cell transformation, viral enhanced, Assay Code: CT7+, Evaluation Type: Evaluation A (Pre-1980)) read?
A: active; positive

Q: How did the mutagenic call (Species/Cell Type: Arabidopsis species, Assay Type: Gene mutation, Assay Code: ARM+, Evaluation Type: Evaluation A (Pre-1980)) turn out when `CCOS(=O)(=O)CC` was run?
A: active; positive

Q: What about the mutagenic call (Species/Cell Type: Hordeum vulgare (barley), Assay Type: Chromosome aberrations, Assay Code: HOC-, Evaluation Type: Evaluation A (Pre-1980)) of the same compound?
A: inactive; negative

Q: What about the mutagenic call (Species/Cell Type: Hordeum vulgare (barley), Assay Type: Gene mutation, Assay Code: HOM+D, Dose Response: With dose response, Evaluation Type: Evaluation A (Pre-1980)) of the same compound?
A: active; positive

Q: With `C1=Cc2c(cc3ccc4cccc5ccc2c3c45)CC1` as the compound, how does the mutagenic call (Species/Cell Type: Salmonella typhimurium (one or more of the five standard strains: TA98, TA100, TA1535, TA1537, and TA1538), Assay Type: Histidine reverse gene mutation, Ames assay, Assay Code: SAL+*, Activation: With metabolic activation, Evaluation Type: Evaluation A (Pre-1980)) read?
A: active; positive

Q: With `ClC1=C(Cl)[C@]2(Cl)[C@@H]3[C@@H]4C[C@@H]([C@H]5O[C@@H]45)[C@@H]3[C@@]1(Cl)C2(Cl)Cl` as the compound, how does the mutagenic call [9] read?
A: active; positive

Q: What about the mutagenic call (Species/Cell Type: Drosophila melanogaster, Assay Type: Sex-linked recessive lethal gene mutation, Assay Code: SRLT, Evaluation Type: Evaluation A (Pre-1980)) of the same compound?
A: no conclusion

Q: What about the mutagenic call [7] of the same compound?
A: inactive; negative

Q: What about the mutagenic call (Species/Cell Type: Saccharomyces cerevisiae, Assay Type: Forward and reverse gene mutation, mitotic recombination and gene conversion, host-mediated assay, Assay Code: HME-, Evaluation Type: Evaluation A (Pre-1980)) of the same compound?
A: inactive; negative

Q: What about the mutagenic call (Species/Cell Type: Saccharomyces cerevisiae, Assay Type: Mitotic recombination or gene conversion, Assay Code: YEH-, Evaluation Type: Evaluation A (Pre-1980)) of the same compound?
A: inactive; negative

Q: What about the mutagenic call [4] of the same compound?
A: inactive; negative

Q: With `CCN(CCCl)CCCNc1ccnc2ccc(OC)cc12` as the compound, how does the mutagenic call (Species/Cell Type: Neurospora crassa, Assay Type: Reverse gene mutation, Assay Code: NER+, Evaluation Type: Evaluation A (Pre-1980)) read?
A: active; positive

Q: `COc1cc2c(c3oc(=O)c4c(c13)CCOC4=O)C1CC(O)OC1O2` (stereo not drawn) was tested. Which mutagenic call (Species/Cell Type: Salmonella typhimurium (one or more of the five standard strains: TA98, TA100, TA1535, TA1537, and TA1538), Assay Type: Histidine reverse gene mutation, Ames assay, Assay Code: SALT, Evaluation Type: Evaluation A (Pre-1980)) did it give?
A: no conclusion

Q: With `CN(C)C(CSC(N)=O)CSC(N)=O` as the compound, how does the mutagenic call (Species/Cell Type: Mammalian polychromatic erythrocytes, Assay Type: Micronucleus test, chromosome aberrations, Assay Code: MNTT, Evaluation Type: Evaluation B (Post-1980)) read?
A: no conclusion

Q: And the mutagenic call (Species/Cell Type: Nonhuman bone marrow, Assay Type: Chromosome aberrations, in vivo, Assay Code: CY#-, Evaluation Type: Evaluation A (Pre-1980))?
A: inactive; negative
